Experimental data from US11446265B2, “Reagents, compositions and methods for improving viability and function of cells, tissues and organs” (TARGA BIOMEDICAL, priority 2016, dated 2022).

Experiments:
H9c2 cardiomyoblasts [1] = assay: H9c2 viability under hypoxia/serum starvation (LIVE/DEAD); assay type: cell-based, rat; settings: 1 uM
Experimental: For survival to hypoxic challenge and oxidative challenge, H9c2 cardiomyoblasts are submitted to the hypoxia/serum starvation (<1% O2 in hypoxia chamber in low serum media for 48 hours) or oxidative stress (incubation in media for 1 hour spiked with 0-1 mM H2O2). Viability status of H9c2 cells was evaluated using the LIVE/DEAD assay.

H9c2 cardiomyoblasts [2] = assay: H9c2 viability under hypoxia/reoxygenation stress; assay type: cell-based, rat; settings: 1 uM
Experimental: Next, the hypoxia/reoxygenation challenge is performed. Briefly, viability analysis was performed in rat H9c2 cardiomyoblasts as previously reported. For hypoxia/reoxygenation stress, cells were cultured in DMEM no glucose (Life Technologies), serum starved and placed in hypoxic conditions (<1% O2) for 18 h. At reoxygenation (normoxic conditions), cells were treated with Celastrol (10^−10 to 10^−6 mol/L, Cayman Chemical, Ann Arbor, Mich.), Celastrol analogs or vehicle (Dimethyl sulfoxide (DMSO), Sigma-Aldrich Canada, Oakville, ON; final concentration<1% v/v) in DMEM high glucose 1% FBS for 1 h, then reoxygenation was continued in DMEM high glucose for an additional 5 h.

[3] = system: heat shock response (HSR); assay: Heat shock response luciferase reporter assay in H9c2; assay type: cell-based, rat; settings: H9c2, 10E-5 to 10E-10M, 4 hours, 3 hours washout
Experimental: (§1) H9c2 rat cardiomyoblasts were seeded at a density of 5,000 cells per well in 96 well plates in DMEM 10% FBS complete medium and transfected using lipofectamine with the Cignal Reporter Assay Heat shock response and Antioxidant response kits (SABiosciences, Qiagen) according to the manufacturers' protocol.

[4] = system: antioxidant responsive elements (ARE); assay: Antioxidant response luciferase reporter assay in H9c2; assay type: cell-based, rat; settings: H9c2, 10E-5 to 10E-10M, 4 hours, 3 hours washout
Experimental: as §1

human MSCs = assay: Screen of compounds for viability of human MSCs under hypoxic stress; assay type: cell-based; settings: FIG. 1
Experimental: In an attempt to identify conditioning compounds that are able to ensure in vivo cellular viability, based on preliminary evidence using Celastrol, over a dozen compounds with structural similarities identified through literature and the Sigma-Aldrich® Structure Search online tool, were screened. The compounds' capacity to improve viability of human MSCs challenged to hypoxic stress was measured. The molecules that were screened, most of which are natural compounds, can be classified as triterpenoids, limonoids, withanolides, sterols, isoprenoides/ diterpenes and flavonoids. Classical HSP90 inhibitors were also added to the screen, such as Radicicol that directly target the ATP binding pocket at the NT region of HSP90^9 (NT inhibitor). […] 28; 42(2):260-6.^10Patwardhan C. A. et al., J Biol Chem. 2013 Mar. 8; 288(10):7313-25.^11Sreeramulu S. et al., Angew Chem Int Ed Engl. 2009; 48(32):5853-5.^12Gu M., et al. Invest New Drugs. 2014 Feb.;32(1):68-74.

[5] = system: rat mesenchymal stem cells (rMSC); assay: rMSC viability after hypoxia/serum starvation (LIVE/DEAD); assay type: cell-based; settings: 1-hour treatment, compound alone
Experimental: (§2) To test the first main condition, MSCs (either sourced from rat or humans) were treated with the candidate pharmaco-optimizers, washed and submitted to hypoxia/serum starvation (<1% O2 in hypoxia chamber in low serum media for 48-72 hours) or oxidative stress (incubation in media for 1 hour spiked with 0-2 mM H2O2), which mimic the major lethal stressors present in the ischemic transplant microenvironment. Viability status of cells are assessed using the LIVE/DEAD viability/cytotoxicity kit (Life Technologies™) and results are quantified by Operetta high content screening (HCS) apparatus equipped with Harmony automated analysis software (Perkin Elmer™).

[6] = system: H9c2 cardiomyoblast cell line; assay: H9c2 viability in hypoxia after pre-conditioning with media from treated rMSC (paracrine); assay type: cell-based, rat; settings: 48-hour pre-conditioning with media from treated rMSC; Gedunin high dose
Experimental: (§3) To test the second main condition, MSCs were treated with the candidate pharmaco-optimizers for 1 hour, followed by 3 hours washout period. Cell mRNA was extracted and expression of genes of interest was quantified by real time PCR. In additional MSC cultures, cells were treated for one hour, washed and cultured in low serum media for 24 hours. The media containing paracrine factors secreted by MSCs was then placed in contact with H9c2 cardiomyoblast cell line. H9c2 cells were then submitted to the hypoxia/serum starvation (<1% O2 in hypoxia chamber in low serum media for 48 hours) or oxidative stress (incubation in media for 1 hour spiked with 0-1 mM H2O2). Viability status of H9c2 cells was evaluated using the LIVE/DEAD assay as detailed above.

[7] = system: rat mesenchymal stem cells (rMSC); assay: rMSC viability after oxidative stress (H2O2, LIVE/DEAD); assay type: cell-based; settings: 1-hour treatment, compound alone
Experimental: as §2

H9c2 cells = assay: H9c2 viability in oxidative stress after pre-conditioning with media from treated rMSC (paracrine); assay type: cell-based, rat; settings: 24-hour preconditioning with media from treated rMSC
Experimental: as §3

[8] = system: rat mesenchymal stem cells (rMSC); assay: mRNA expression in rMSC by real time PCR; assay type: cell-based; settings: rMSC, 1-hour treatment and 3-hour washout, co-treatment with EGCG or tBHQ
Experimental: as §3
Combination Treatments Tested—First Experiment: Celastrol (1 μM) or Gedunin (1 μM)+EGCG (1 μM, 10 μM) or TBHQ (1 μM, 5 μM)

[9] = system: human mesenchymal stem cells (hMSC); assay: mRNA expression in hMSC by real-time PCR; assay type: cell-based; settings: FIGS. 25A, 25B, 26A to 26D
Text: FIG. 25A is a table representing mRNA expression of selected genes measured by real-time PCR in human mesenchymal stem cells (hMSC) conditioned with Celastrol alone or in combination with selected adjunct agents. Results are expressed as fold change versus Vehicle-treated cells.
FIG. 25B is a table representing mRNA expression of selected genes measured by real-time PCR in human mesenchymal stem cells (hMSC) conditioned with selected Celastrol analogs alone or in combination with selected adjunct agents. Results are expressed as fold change versus Vehicle-treated cells.
Results are expressed as fold change versus Vehicle-treated cells. (Arbitrary angiogenic index: (VEGFa+FGF2+SDF1)*2) (A=Additive effect; S=Synergistic effect).
as §3

isolated perfused heart = system: isolated perfused heart; set-up: species or system rat
[10] = Rat myocardial ischemia/reperfusion in vivo, echocardiography at 24 h; settings: 1 mg/Kg intraventricular, vs Vehicle
Experimental: Rats were randomly assigned to the following groups: Sham (n=6), Vehicle (n=8), Celastrol 1 mg/Kg (n=6) or Celastrol analogs. Under 2% isoflurane anesthesia, baseline echocardiography using a Sonos 5500 Imaging System (Philips, Philips Healthcare, Andover, Mass., USA) with a 12 MHz transducer was performed as described^12. All measures were acquired by the same experienced observer, blinded to the treatment. For each measurement, three to five cardiac cycles were analysed and averaged.
After echocardiography, the animal was intubated and mechanically ventilated, then bupivacaine 2 mg/kg was injected, and a left thoracotomy was performed, exposing the heart. Using a 5-0 silk slipknot, an occlusion of the left anterior descending coronary artery was performed. Visual blanching and electrocardiographic changes confirmed myocardial ischemia. In Sham animals, suture was not ligated. After 30 minutes, the suture occlusion was released. Celastrol, Celastrol analogs or vehicle was injected intraventricularly for acute systemic delivery, then the chest was closed. Buprenorfine (0.05 mg/Kg sc) and carprofen (5 mg/Kg sc) were injected at the end of surgery. Animals were left to recuperate for 24 h, then a second echocardiography was performed. Animals were sacrificed, cardiac tissue was snap frozen, and blood was collected in heparinized tubes, then centrifuged at 4° C. Plasma was collected, snap frozen and kept at −80° C. until analysis.

[11] = 10^−8 mol/L dose, vs Vehicle (DMSO)

Row | Structure (SMILES) | protection of H9c2 cardiomyoblasts from hypoxia (H9c2 cardiomyoblasts [1]) | protection of H9c2 cardiomyoblasts from hypoxia/reoxygenation stress (H9c2 cardiomyoblasts [2]) | stimulation of reporter gene controlled by heat shock responsive elements (HSR) [3] | stimulation of reporter gene controlled by antioxidant responsive elements (ARE) [4] | protection of rMSCs from 48-hour hypoxia induced cell death [5] | protection of H9c2 from 48-hour hypoxia-induced cell death (paracrine) [6] | protection of rMSCs from oxidative stress induced death [7] | protection of H9c2 cells from oxidative stress induced death (paracrine) (H9c2 cells) | ranking as HSP90 inhibitor from expression of HSPs, growth factors, antioxidant proteins/enzymes, cytokines, matrix remodeling proteins [9] | also measured
1 | CC1=C(O)C(=O)C=C2C1=CC=C1[C@@]2(C)CC[C@@]2(C)[C@@H]3C[C@](C)(C(=O)NO)CC[C@]3(C)CC[C@]12C [Analog 4] | effective | effective | among the most potent and efficient compounds tested | among the most potent and efficient compounds tested |  |  |  |  |  | 
2 | CC(=O)O[C@@H]1C[C@H]2C(C)(C)C(=O)C=C[C@]2(C)[C@H]2CC[C@@]3(C)[C@H](c4ccoc4)OC(=O)[C@H]4O[C@]43[C@@]21C [Gedunin] |  |  |  |  | protect | protects | protect treated cells from oxidative stress-induced death | protects |  | capacity to improve viability of human MSCs challenged to hypoxic stress (human MSCs): top scoring; IL-1β mRNA expression induced by EGCG and tBHQ [8]: downregulate
3 | C[C@@H]1C[C@H]2O[C@@H]2/C=C\C=C\C(=O)Cc2c(Cl)c(O)cc(O)c2C(=O)O1 [Radicicol] |  |  |  |  | protect | does not produce a mediator for paracrine efficacy | not | no protection |  | 
4 | CC1=C(O)C(=O)C=C2C1=CC=C1[C@@]2(C)CC[C@@]2(C)[C@@H]3C[C@](C)(C(=O)NCCO)CC[C@]3(C)CC[C@]12C [Analog 3] | effective | effective | among the most potent and efficient compounds tested | among the most potent and efficient compounds tested |  |  |  |  | best HSP90 inhibitors | 
5 | CC1=C(O)C(=O)C=C2C1=CC=C1[C@@]2(C)CC[C@@]2(C)[C@@H]3C[C@](C)(C(N)=O)CC[C@]3(C)CC[C@]12C [Analog 1] | effective | effective | among the most potent and efficient compounds tested | among the most potent and efficient compounds tested |  |  |  |  | best HSP90 inhibitors | infarct area measured by TTC stain (isolated perfused heart): significantly reduced; Coronary reserve flow (CRF) (isolated perfused heart; [11]): preserved; I/R-induced systolic dysfunction (+/−dP/dt, generated pressure, EDP, contractility index) (isolated perfused heart; [11]): protected the heart from I/R-induced systolic dysfunction; high sensitivity troponin T (TNT-hs) release (isolated perfused heart; [11]): significantly reduced; cardiac output (CO) following I/R injury [10]: preserving; ejection fraction (EF) following I/R injury [10]: preserving; fractional shortening (FS) following I/R injury [10]: preserving; stroke volume (SV) following I/R injury [10]: preserving
